Results on three molecules are retold here after US10351883B2, “Compounds for increasing lipid synthesis and storage” (NUtech Ventures, priority 2015, dated 2019).

What all share (type): cell-based
For series [1], the system named is Chlamydomonas reinhardtii cells. The series can be described thus: Microscopy of treated cells (organelles, lipid droplets). As to conditions: FIG. 1. The protocol: The screening library included 43,736 compounds (ChemBridge, Corp). […] A sub-set of compounds were retested using an 8-point dose response assay (0.25-30 μM). Compounds were further assessed visually using a Nikon Ti-inverted microscope (60×) to reconfirm lipid droplet accumulation was induced.

Series [2] has the same test system. The series can be described thus: Lipid accumulation using lipophilic dye Nile Red. The settings on record: for lipid accumulation: 0.5 μM to 15.0 μM, FIG. 3; for lipid accumulation over 72 hours: 30 μM test compound, FIG. 4. The protocol:
[…] At the indicated times 200 μL cells were removed from each well and optical density and nile red fluorescence were measured.
Lipid accumulation over a period of 72 hours was also measured (30 μM test compound) using lipophilic dye Nile Red, as shown in FIG. 4. […] FIGS. 12A-12C show representative images of C. reinhardtii cultures that were treated with 10 μM of representative test compounds of Formula Ia, Formula IIa, and Formula IIIa. The corresponding lipid accumulation was visualized using confocal microscopy after 72 hours in culture.

The test system is the same in series [3]. Description: Fatty acid assay. The settings on record: 30 μM, FIG. 5.
The test system is the same in series [4]. Description: Triglyceride assay. The settings on record: 5 μM, FIG. 6.
Series [5] shares this test system. Description: Cellular chlorophyll and carotenoid levels. The settings on record: 30 μM, FIG. 7.
Series [6] has the same test system. Description: Levels of proteins required for photosynthesis. As to conditions: Rubisco large and small sub unit, PSa D, PSb A, phosphoribulokinase, histone; FIG. 8.
Series [7] shares this test system. Description: Cellular carbohydrate levels. As to conditions: 30 μM, FIG. 9.
Series [8] has the same test system. Description: Total protein levels in cells. The settings on record: FIG. 10.
Series [9] deals with Chlamydomonas reinhardtii CC125. The series can be described thus: Lipid accumulation in algal cells. The settings on record: 0.63 μM to 50 μM, FIG. 11A-11C. As to the method:
(§1) Compounds 1, 62, and 136 were assayed in algal species Chlamydomonas reinhardtii CC125, Chlorella sorokiniana UTEX 1230, Chlorella vulgaris UTEX 395, and Tetrachlorella alterns UTEX 2453 at concentrations ranging from 0.63 μM to 50 μM.

In series [10] the test system is Chlorella sorokiniana UTEX 1230. The series can be described thus: Lipid accumulation in algal cells. The settings on record: 0.63 μM to 50 μM, FIG. 11A-11C. As to the method: as §1
Series [11] relates to Chlorella vulgaris UTEX 395. Description: Lipid accumulation in algal cells. As to conditions: 0.63 μM to 50 μM, FIG. 11A-11C. As to the method:
as §1

For series [12], the system named is Tetrachlorella alterns UTEX 2453. The series can be described thus: Lipid accumulation in algal cells. As to conditions: 0.63 μM to 50 μM, FIG. 11A-11C. As to the method:
as §1

Consider `COc1ccc(CCN(C)Cc2ccc([N+](=O)[O-])cc2)cc1OC` [Compound 1, 2-(3,4-dimethoxyphenyl)-N-methyl-N-(4-nitrobenzyl)ethan-1-amine], for which the “disruption of major organelles including nucleus, endoplasmic reticulum, and chloroplast” value (from here on “disruption”) in series [1] is recorded as “does not disrupt major organelles”. In addition, the lipid accumulation entry in [2] is given as “increased lipid accumulation”; in series [9], “stimulated lipid accumulation”; in [10] it was “stimulated lipid accumulation”; in series [11], “stimulated lipid accumulation”; in series [12], “stimulated lipid accumulation”. Further, the “lipid accumulation over 72 hours” value in series [2] was “increased lipid accumulation”. Moreover, the fatty acid levels result in series [3] was “increased fatty acid levels”. Also, the triacylglyercol levels entry in series [4] is listed as “increased triacylglyercol levels”. Further, the carotenoid levels result in series [5] was “did not significantly alter”. The “levels of chlorophyll A (Chl A)” value in [5] is recorded as “did not significantly alter”. In addition, the “levels of chlorophyll B (Chl B)” value in series [5] is on record as “did not significantly alter”. Further, the “levels of proteins required for photosynthesis” value (shortened to “levels of proteins required”) in [6] was “did not significantly affect”. In series [7], the carbohydrate levels entry is on record as “increased carbohydrate levels”. For the same molecule, in series [8], the total protein levels result was “None of the test compounds significantly affected”.

As to `COc1ccccc1N1CCN(Cc2ccc(O)cc2)CC1` [Compound 62, 4-((4-(2-methoxyphenyl)piperazin-1-yl)methyl)phenol], in [1], the “disruption” value was “does not disrupt major organelles”. The lipid accumulation entry is “increased lipid accumulation” in series [2]; “stimulated lipid accumulation” in series [9]; “stimulated lipid accumulation” in series [10]; “stimulated lipid accumulation” in [11]; “stimulated lipid accumulation” in [12]. In addition, the “lipid accumulation over 72 hours” value in series [2] is recorded as “increased lipid accumulation”. For the same molecule, the fatty acid levels entry in series [3] is given as “increased fatty acid levels”. In addition, the triacylglyercol levels entry in series [4] was “increased triacylglyercol levels”. Further, the carotenoid levels result in series [5] is “did not significantly alter”. The “levels of chlorophyll A (Chl A)” value in [5] was “did not significantly alter”. In addition, in series [5], the “levels of chlorophyll B (Chl B)” value is reported as “did not significantly alter”. Moreover, in series [6], the “levels of proteins required” value is reported as “minor effects”. The carbohydrate levels entry in series [7] is “increased carbohydrate levels”. In addition, the total protein levels result in series [8] is reported as “None of the test compounds significantly affected”.

Consider `CN(CCC#N)C12CC3CC(CC(C3)C1)C2` [Compound 136, 3-(adamantan-1-yl(methyl)amino)propanenitrile], for which the “disruption” value in [1] is listed as “does not disrupt major organelles”. In addition, the lipid accumulation entry in series [2] is listed as “increased lipid accumulation”; in series [9], “stimulated lipid accumulation”; in series [10], “stimulated lipid accumulation”; in [11], “stimulated lipid accumulation”; in [12], “stimulated lipid accumulation”. Further, the “lipid accumulation over 72 hours” value in series [2] is “increased lipid accumulation”. Moreover, the fatty acid levels entry in series [3] is on record as “increased fatty acid levels”. Besides, in series [4], the triacylglyercol levels entry was “increased triacylglyercol levels”. For the same molecule, in [5], the carotenoid levels result is “did not significantly alter”. Besides, in series [5], the “levels of chlorophyll A (Chl A)” value is on record as “did not significantly alter”. The “levels of chlorophyll B (Chl B)” value in series [5] is “did not significantly alter”. Also, the “levels of proteins required” value in [6] is recorded as “did not significantly affect”. In addition, in series [7], the carbohydrate levels result is reported as “increased carbohydrate levels”. Besides, the total protein levels entry in [8] is “None of the test compounds significantly affected”.
